Measured values taken from US9346769B2, “Tetrazolones as inhibitors of fatty acid synthase” (Infinity Pharmaceuticals, Inc., priority 2010, dated 2016).

These compounds were tested against T1, human FASN (Homo sapiens, UniProt P49327) (assay: FASN NADPH Consumption Assay). Conditions: human FASN purified from SKBR3 cells; starred symbols.
T1 construct: was purified from SKBR3 cells using procedures modified from those in Jayakumar et al; endogenous in cells; host or cells: SKBR3 human breast cancer cells (ATCC); Endogenous enzyme purified by ammonium sulfate precipitation and a mono Q column
Format: biochemical
Experimental: Human FASN protein (SEQ ID NO. 1) was purified from SKBR3 cells using procedures modified from those in Jayakumar et al. PNAS 1995, 92:8695-8699. SKBR3 cells were obtained from ATCC and grown in DMEM high glucose medium supplemented with 10% FBS, 1 μg/mL bovine pancreas insulin, 100 U/mL penicillin and 100 µg/mL streptomycin. The confluent cells were trypsinized and washed three times with PBS buffer before frozen in liquid N2 and stored at −80° C. Frozen cells were thawed on ice and resuspended in lysis buffer (25 mM Tris-HCl, pH 7.0, 15 mM NaCl, 1 mM EDTA, and 1 mM DTT) with protease inhibitors. The cells were lysed by sonication, and the cell debris was removed by centrifugation at 20,000 rpm for 30 min. To the supernatant, neutralized saturated ammonium sulfate solution was added to a final concentration of 35%. The solution was left on ice for 1 hr, and the precipitated proteins were harvested by centrifugation at 20,000 rpm for 30 min. The proteins were redissolved in lysis buffer without NaCl and loaded on a mono Q column. Bound proteins were eluted with a linear gradient of NaCl in lysis buffer. Each fraction was analyzed by SDS-PAGE and FASN NADPH consumption assay. The fractions containing FASN were pooled and concentrated to 2-3 mg/mL. Glycerol was added to 20%, and the protein was frozen in liquid N2 and stored at −80° C.
All chemicals were purchased from Sigma (St. Louis, Mo.). The procedures of NADPH consumption assay were similar to those described in Cox et al., PNAS 1983, 80:4233-4237. On a 96-well polypropylene microplate, dilution series (typical concentrations 60 nM-1.0 mM) of test compounds were prepared in DMSO, of which 4.0 μL each was transferred to a black polystyrene assay microplate and mixed with 36 μL FASN assay buffer (50 mM potassium phosphate, pH 7.0, 1.0 mM EDTA, 0.01% NP-40) plus 5.0 mM fresh DTT. FASN protein (40 μL 150 nM FASN) was added per well, and the microplate was incubated at 37° C. for 30 min. Enzyme activity measurement was initiated by addition of 20 μL 5× substrate mixture to final concentrations of 60 nM FASN, 2.4 nM-40 μM compound, 0.2 mM NADPH, 50 μM butyryl-CoA, 0.5 mM malonyl-CoA in 100 μL assay buffer plus 5.0 mM DTT and 4.0% DMSO. NADPH consumption was monitored kinetically by fluorescence (λEx=340 nm, λEm=460 nm) on an EnVision 2100 multilabel plate reader (Perkin Elmer, Waltham, Mass.). FASN enzyme activity (slope) in the presence of 4% DMSO was used as maximum control, whereas background (minimum control) was measured by omission of malonyl-CoA in the substrate mixture. Inhibition curves were fitted by a logistic function to yield IC50 values:
Compounds were assayed as inhibitors of human FASN using the above-described FASN Scintillation Proximity Flashplate Assay (IC50; nM) or FASN NADPH Consumption Assay (*) (IC50; nM). The corresponding activity of the isolated compound is also provided along with the measured mass (ES^+).

T1 sequence (P49327 whole entry): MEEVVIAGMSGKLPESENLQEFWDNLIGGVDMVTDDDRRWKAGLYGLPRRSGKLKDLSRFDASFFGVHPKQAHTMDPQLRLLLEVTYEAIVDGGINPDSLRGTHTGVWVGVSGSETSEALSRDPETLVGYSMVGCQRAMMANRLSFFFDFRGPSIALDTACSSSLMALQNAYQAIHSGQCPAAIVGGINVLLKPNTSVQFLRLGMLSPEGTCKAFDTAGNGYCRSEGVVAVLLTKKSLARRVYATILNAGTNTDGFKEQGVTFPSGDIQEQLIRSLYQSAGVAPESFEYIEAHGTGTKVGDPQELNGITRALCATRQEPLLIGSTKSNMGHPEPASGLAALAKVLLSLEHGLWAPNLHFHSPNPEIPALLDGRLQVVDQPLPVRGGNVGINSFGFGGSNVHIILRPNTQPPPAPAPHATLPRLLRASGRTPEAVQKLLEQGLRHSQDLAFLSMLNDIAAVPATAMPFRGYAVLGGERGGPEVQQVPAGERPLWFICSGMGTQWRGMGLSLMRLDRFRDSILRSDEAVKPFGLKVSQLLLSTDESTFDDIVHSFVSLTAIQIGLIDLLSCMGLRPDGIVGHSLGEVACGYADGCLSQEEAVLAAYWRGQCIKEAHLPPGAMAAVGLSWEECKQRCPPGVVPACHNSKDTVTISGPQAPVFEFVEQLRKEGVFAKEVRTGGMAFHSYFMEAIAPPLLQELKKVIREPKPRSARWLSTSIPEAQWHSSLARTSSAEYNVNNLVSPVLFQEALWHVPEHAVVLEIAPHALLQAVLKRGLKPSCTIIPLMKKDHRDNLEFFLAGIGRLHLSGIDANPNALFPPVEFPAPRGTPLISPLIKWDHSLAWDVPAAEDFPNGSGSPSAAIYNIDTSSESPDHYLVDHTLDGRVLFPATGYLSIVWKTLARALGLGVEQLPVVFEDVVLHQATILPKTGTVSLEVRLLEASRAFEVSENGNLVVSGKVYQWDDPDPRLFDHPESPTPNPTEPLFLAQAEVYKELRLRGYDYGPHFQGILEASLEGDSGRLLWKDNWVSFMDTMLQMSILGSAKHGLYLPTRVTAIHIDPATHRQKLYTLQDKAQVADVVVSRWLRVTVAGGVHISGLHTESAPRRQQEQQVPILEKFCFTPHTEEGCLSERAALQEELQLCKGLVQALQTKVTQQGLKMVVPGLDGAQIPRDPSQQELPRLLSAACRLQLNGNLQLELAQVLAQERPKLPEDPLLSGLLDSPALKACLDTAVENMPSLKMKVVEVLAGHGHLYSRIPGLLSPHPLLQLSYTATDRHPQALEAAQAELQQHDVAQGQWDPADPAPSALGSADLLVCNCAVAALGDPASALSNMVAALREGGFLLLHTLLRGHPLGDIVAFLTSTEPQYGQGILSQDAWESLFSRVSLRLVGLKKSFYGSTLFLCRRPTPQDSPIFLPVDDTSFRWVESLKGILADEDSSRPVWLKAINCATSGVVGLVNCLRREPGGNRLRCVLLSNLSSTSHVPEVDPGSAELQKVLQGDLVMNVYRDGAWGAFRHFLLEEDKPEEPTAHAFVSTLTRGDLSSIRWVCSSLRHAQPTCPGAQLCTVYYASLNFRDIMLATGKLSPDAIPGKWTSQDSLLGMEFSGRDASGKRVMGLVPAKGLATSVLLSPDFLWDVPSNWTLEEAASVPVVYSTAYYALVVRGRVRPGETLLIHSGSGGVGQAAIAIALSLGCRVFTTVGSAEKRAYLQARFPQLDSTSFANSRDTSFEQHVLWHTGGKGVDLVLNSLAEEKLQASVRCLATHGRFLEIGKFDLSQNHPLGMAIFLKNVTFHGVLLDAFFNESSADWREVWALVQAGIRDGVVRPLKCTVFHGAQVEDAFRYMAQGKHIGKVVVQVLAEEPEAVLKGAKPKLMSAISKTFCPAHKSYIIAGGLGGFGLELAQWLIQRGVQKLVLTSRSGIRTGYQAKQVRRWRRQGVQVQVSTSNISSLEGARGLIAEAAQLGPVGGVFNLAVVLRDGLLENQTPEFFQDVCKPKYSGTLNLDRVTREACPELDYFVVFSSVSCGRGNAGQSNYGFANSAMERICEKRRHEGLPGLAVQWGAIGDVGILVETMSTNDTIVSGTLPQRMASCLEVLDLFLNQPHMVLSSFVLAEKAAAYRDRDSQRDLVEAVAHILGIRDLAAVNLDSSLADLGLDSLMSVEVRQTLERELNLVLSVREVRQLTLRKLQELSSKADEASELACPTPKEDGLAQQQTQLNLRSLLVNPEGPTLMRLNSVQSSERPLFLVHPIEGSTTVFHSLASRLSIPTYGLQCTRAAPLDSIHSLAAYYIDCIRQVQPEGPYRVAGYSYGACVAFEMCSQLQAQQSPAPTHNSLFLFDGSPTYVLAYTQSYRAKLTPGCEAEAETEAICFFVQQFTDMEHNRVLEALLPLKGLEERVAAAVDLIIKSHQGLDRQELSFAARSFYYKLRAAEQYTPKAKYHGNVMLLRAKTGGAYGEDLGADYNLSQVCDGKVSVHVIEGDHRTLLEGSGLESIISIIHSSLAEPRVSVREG

Structure (SMILES)	IC50
CC(C)(C)OC(=O)N[C@@H]1CCN(C(=O)n2nnn(-c3c(Cl)cccc3Cl)c2=O)C1	1000 to 10000 nM
CC(C)(C)OC(=O)N[C@H]1CCN(C(=O)n2nnn(-c3c(Cl)cccc3Cl)c2=O)C1	> 10000 nM
O=C(N1CCCC1)n1nnn(-c2c(Cl)cccc2Cl)c1=O	> 10000 nM
CC(=O)NC1CCCN(C(=O)n2nnn(-c3c(Cl)cccc3Cl)c2=O)C1 (centres unmarked)	> 10000 nM
O=C(C1CCCN(C(=O)n2nnn(-c3c(Cl)cccc3Cl)c2=O)C1)N1CCCCC1 (centres unmarked)	1000 to 10000 nM
O=C(O)C1CCN(C(=O)n2nnn(-c3c(Cl)cccc3Cl)c2=O)CC1	> 10000 nM
O=C(N1CCCCC1)n1nnn(-c2c(Cl)cccc2Cl)c1=O	1000 to 10000 nM
CS(=O)(=O)NC1CCCN(C(=O)n2nnn(-c3c(Cl)cccc3Cl)c2=O)C1 (centres unmarked)	> 10000 nM
CCNC(=O)NC1CCCN(C(=O)n2nnn(-c3c(Cl)cccc3Cl)c2=O)C1 (centres unmarked)	> 10000 nM
O=C(N1CCOCC1)n1nnn(-c2ccccc2Cl)c1=O	> 10000 nM
O=C(O)c1ccc2c(c1)CCCN2C(=O)n1nnn(-c2ccccc2)c1=O	60 to 250 nM
O=C(N1CCCc2ccccc21)n1nnn(-c2ccccc2Oc2ccccc2)c1=O	60 to 250 nM
COC(=O)C1CCc2ccccc2N1C(=O)n1nnn(-c2ccccc2Oc2ccccc2)c1=O (centres unmarked)	250 to 1000 nM
CC(C)(C)OC(=O)Nc1ccc2c(c1)CCCN2C(=O)n1nnn(-c2c(F)cccc2F)c1=O	60 to 250 nM
CCN(C(=O)n1nnn(-c2cccc(Cl)c2)c1=O)C1CCCCC1	> 10000 nM
CCN(C(=O)n1nnn(-c2cccc(C(F)(F)F)c2)c1=O)C1CCCCC1	> 10000 nM
CCN(C(=O)n1nnn(-c2cccc(C#N)c2)c1=O)C1CCCCC1	> 10000 nM

Other lines, results leading:

IC50	Structure (SMILES)
60 to 250 nM	Cc1ccccc1C#Cc1cccc(F)c1-n1nnn(C(=O)N2CCCC3CCCCC32)c1=O (centres unmarked)
60 to 250 nM	O=C(N1CCCC2CCCCC21)n1nnn(-c2c(F)cccc2Br)c1=O (centres unmarked)
60 to 250 nM	O=C(N1CCCC2CCCCC21)n1nnn(-c2c(F)cccc2F)c1=O (centres unmarked)
250 to 1000 nM	O=C(N1CCCC2CCCCC21)n1nnn(-c2ccccc2Oc2ccccc2)c1=O (centres unmarked)
250 to 1000 nM	O=C(N1CCCC2CCCCC21)n1nnn(-c2c(Cl)cccc2Cl)c1=O (centres unmarked)
1000 to 10000 nM	O=C(N1CC[C@](O)(c2ccccc2)[C@@H]2CCCC[C@H]21)n1nnn(-c2c(F)cccc2F)c1=O
1000 to 10000 nM	C[C@@H]1CC(=O)[C@@H]2CCCC[C@H]2N1C(=O)n1nnn(-c2c(F)cccc2F)c1=O
250 to 1000 nM	O=C(N1CCc2ccccc2C1)n1nnn(-c2c(F)cccc2F)c1=O
60 to 250 nM	Cc1cccc2c1N(C(=O)n1nnn(-c3c(F)cccc3F)c1=O)CCC2
1000 to 10000 nM	O=C(N1CCCc2cc([N+](=O)[O-])ccc21)n1nnn(-c2c(F)cccc2F)c1=O
60 to 250 nM	COc1ccc2c(c1)CCCN2C(=O)n1nnn(-c2c(F)cccc2F)c1=O
60 to 250 nM	Cc1ccc2c(c1)CCCN2C(=O)n1nnn(-c2c(F)cccc2F)c1=O
60 to 250 nM	O=C(N1CCCc2ccccc21)n1nnn(-c2c(F)cccc2F)c1=O
60 to 250 nM	O=C(N1CCCc2cc(Br)ccc21)n1nnn(-c2c(F)cccc2F)c1=O
60 to 250 nM	O=CNc1ccc2c(c1)CCCN2C(=O)n1nnn(-c2c(F)cccc2F)c1=O
60 to 250 nM	Nc1ccc2c(c1)CCCN2C(=O)n1nnn(-c2c(F)cccc2F)c1=O
60 to 250 nM	O=CNc1cccc2c1CCCN2C(=O)n1nnn(-c2c(F)cccc2F)c1=O
60 to 250 nM	COC(=O)C1CCc2ccccc2N1C(=O)n1nnn(-c2c(F)cccc2F)c1=O (centres unmarked)
60 to 250 nM	CC1CCc2ccccc2N1C(=O)n1nnn(-c2c(F)cccc2F)c1=O (centres unmarked)
60 to 250 nM	CC(C)(C)OC(=O)Nc1cccc2c1CCCN2C(=O)n1nnn(-c2c(F)cccc2F)c1=O
250 to 1000 nM	O=C(N1CCCc2ccc(C(F)(F)F)cc21)n1nnn(-c2c(F)cccc2F)c1=O
60 to 250 nM	Nc1cccc2c1CCCN2C(=O)n1nnn(-c2c(F)cccc2F)c1=O
60 to 250 nM	O=C(N(O)C1CCCCC1)n1nnn(-c2c(F)cccc2F)c1=O
250 to 1000 nM	CCN(C(=O)n1nnn(-c2c(F)cccc2F)c1=O)C1CCCCC1
